For orientation: IC50 means the concentration that inhibits the measured activity by half.

Data on two compounds can be found in paper PMC3472544, “Glycosaminoglycan analogs as a novel anti-inflammatory strategy” (Frontiers in Immunology, 2012).

In one assay the target is T1, CCR1 (Homo sapiens, UniProt P13501).
T1 construct: expressed in transfected cells; host or cells: CHO
T1 sequence (P13501 24-91): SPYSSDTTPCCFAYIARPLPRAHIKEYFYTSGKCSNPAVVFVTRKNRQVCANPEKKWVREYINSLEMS
Nature of the assay: Equilibrium competition receptor binding assay (SPA), [125I]-CCL5 on CHO/CCR1 membranes. As to conditions: relative to Molecule 1. As to the method:
(§1) The assays were carried out on membranes from CHO transfectants expressing CCR1 or CCR5, as described previously (Severin et al., [2010]). Briefly, serial dilutions of the compounds were prepared in binding buffer (50 mM TrisHCl, pH 7.2, containing 1 mM CaCl2, 5 mM MgCl2, and 0.5% BSA). Equal volumes of membrane preparation at 80 μg/ml and scintillation proximity assay (SPA) beads were mixed before adding them to a 96 well filter plate, giving a final membrane concentration in the assay of 20 μg/ml. ^125I labeled chemokines were dissolved in binding buffer at a concentration of 0.4 nM. The assay was started by the addition of 25 μL [^125I]-CCL5 to give a concentration of 0.1 nM, in a final assay volume of 100 μL. The plates were incubated for 4 h. Radioactivity was counted with a beta counter for 1 min/well and the data analyzed using Graphpad Prism software. The radioligand was stored at −20°C and was used until the cpm of bound chemokine was ≥ 300 cpm.

Another assay deals with T2, CCR1 (Homo sapiens).
T2 construct: expressed in transfected cells; host or cells: CHO
The description is as above. The following applies: [125I]-CCL5 0.1 nM, CHO/CCR1 membranes, SPA; read-out: IC50 for the inhibition of CCL5 binding to CCR1. Here is the method:
as §1

The subject of assay [1] is CCL5-induced cellular recruitment into the peritoneal cavity. The assay can be described thus: CCL5-induced peritoneal cellular recruitment. In kind it is in vivo, mouse. The following applies: CCL5 binders administered 30 min prior to CCL5 (Figure 4A, B).
Assay [2] concerns citrated plasma from healthy human blood donors. The assay can be described thus: Anti-coagulation assay: Activated Partial Thromboplastin Time (APTT). Here is the method:
Activated Partial Thromboplastin Time (APTT) assays were performed by GlycoMar. 10 mg/ml stock solutions of NisS, StachS, and MHxS, were prepared using dH2O and stored at −20°C until use. Samples were tested at 1 mg/ml. All further dilutions were in dH2O. Prior to each assay, a calibration curve of heparin ranging from 0 to 10 IU/ml was prepared using 5th International Standard Heparin. (GlycoMar ID:92, batch 97/578, Expiry 21SEP10). Fresh human blood from healthy human blood donors was collected into S-Monovette Coagulation tubes from Sarstedt. Nine parts of freshly drawn venous blood were collected into one part trisodium citrate (0.106 M). Plasma was obtained by centrifugation at 1500 × g for 10 min. Each of the carbohydrate samples was diluted and tested at 1 mg/ml in the first instance. MHxS was subsequently tested at 0.1 mg/ml to be within the time frame of the standard curve. The APTT assay was run on an ACL 9000 Coagulation Analyzer. The coagulation time of HemosIL Normal Control (cat no. 0020003110) was checked. Samples, standards and controls were mixed 1:10 with citrated plasma in a test tube, loaded into the ACL 9000 carousel and analyzed using the extended APTT run program.

The test system of assay [3] is leukocyte recruitment into the synovial (knee) cavity. The assay can be described thus: Antigen-induced arthritis (AIA) model, mBSA. In kind it is in vivo, mice. The following applies: 50 μg s.c. immediately after mBSA; cells counted at 24 h. As to the method:
Induction of disease was performed by injection of 10 μg methylated bovine serum albumin (mBSA) as a 10 μL injection into the synovial cavity. Test compounds, at a total dose of 50 μg were injected in a total volume of 200 μL subcutaneously immediately after mBSA administration. Group sizes were 4–6 animals. Total leukocytes (A), neutrophils (B), and mononuclear cells (C) in the synovial cavity were enumerated 24 h after mBSA injection (Sachs et al., [2011]).
Figure 6 Inhibition of antigen induced arthritis. An injection of mBSA into the synovial cavity was used to induce disease. 50 μg of the inhibitors were administered s.c. immediately after the mBSA injection, and the cells in the synovial cavity were enumerated 24 h later. (A) Total cells; (B) […]; (C) mononuclear cells. ^*P < 0.05.

Another assay has as its target T3, CCL5 binding to heparin (Homo sapiens, UniProt P13501).
T3 sequence (P13501 24-91): T1 sequence (P13501 24-91)
Nature of the assay: Immobilized heparin competition binding assay ([125I]-CCL5 on heparin-Sepharose beads). The following applies: [125I]-CCL5 0.05 nM, 4 h, read-out: IC50 for the inhibition of CCL5 binding to heparin. Here is the method:
Competition experiments were performed as described elsewhere (Severin et al., [2010]). Briefly, heparin-Sepharose beads (Sepharose beads or binding buffer as a background control) and increasing amounts of antagonist were added to each well of a 96 well filter plate. [^125I]-CCL5, was added last, to reach a final concentration of 0.05 nM. The plates were incubated on a shaker at room temperature for 4 h. Each experiment was performed in triplicate, and the results are given as the mean of the three assays.

Assay [4] relates to paw thickness after SRBC challenge. Nature of the assay: Delayed-type hypersensitivity (DTH) model, SRBC. It is filed as in vivo, BALB/c mice. As to the method: Female BALB/c mice were immunized with 2 × 10^6 sheep red blood cells (SRBC) by subcutaneous route (s.c.) at the base of the tail. Five days later mice were challenged with an s.c. injection of 2 × 10^6 SRBC into the softpaw of the left hindpaw. The paw thickness was measured 21 h later and the difference calculated based on values obtained before challenge. MHxS, NisS, and StachS were injected s.c. at a dose of 10 mg/kg, 30 min before and 8 h after challenge. Vehicle was 0.02% BSA diluted in PBS. The reference compound, dexamethasone, was diluted in saline and administered by oral gavage 30 min before challenge. Group sizes were 6 for sham and 8 for all other groups.
Figure 5 Inhibition of delayed-type hypersensitivity. Immunization was performed by s.c. administration of SRBC, followed by a challenge in the hindpaw 5 days later. The persulfated oligosaccharides (10 mg/kg) were administered 30 min prior and 8 h after the challenge. Dexamethasone was used as a positive control, and paw thickness was measured 21 h following the challenge. The statistical differences vs. the control group (mice challenged with SRBC and treated with vehicle for the compounds 0.02% BSA diluted in PBS) are shown whenever present and indicated by ^*P <0.05>; ^***P < 0.001. TEXT PRINTED IN THE PICTURE: dexamethasone: 47% *** | MHxS: 39% *** | NisS: 20% * | StachS: 41% ***

Assay [5] relates to thioglycollate-induced cellular recruitment into the peritoneal cavity. Nature of the assay: Thioglycollate-induced peritoneal cellular recruitment. It is filed as in vivo, C3H/Hen mice. As to conditions: thioglycollate i.p.; compound i.p. 30 min before and 24 h later; cells counted at 48 h (Figure 4C, D). Here is the method: CCL5-induced peritoneal recruitment was performed as described (Johnson et al., [2004]). Thioglycollate-induced cellular recruitment was mediated by the administration of 40 mL/kg of 3% thioglycollate i.p. in 7- to 8-week-old female C3H/Hen mice (JANVIER). Sham mice were injected with 40 mL/kg of NaCl (0.9%, LPS free). Saline (vehicle, control group) or Maltohexaose Sulfate at doses ranging from 1 to 0.01 mg/kg diluted in a volume ratio of 10 mL/kg and were administered i.p. 30 min before the thioglycollate stimulus, and 24 h later. An additional group of mice was injected with a single dose of 3 mg/kg dexamethasone 1 h before challenge as a reference control. Mice were sacrificed 48 h post-thioglycollate injection, the peritoneal cavity was washed twice with 5 mL of […] EDTA solution in PDB, pH 7.4. The peritoneal lavage fluid was centrifuged and resuspended in 1 mL of the solution and recruited cells were counted with a cell counter (Beckman-Coulter, ACT5Diff AD32097).
Figure 4 Inhibition of peritoneal cellular recruitment. Cellular recruitment into the peritoneal cavity was induced by CCL5 (A) and (B) and inhibited by different doses of CCL5 binders administered 30 min prior to the CCL5 administration. […]

Entries after “also recorded” stand apart in the source; their conditions may differ.

Take `O=C(CCCCCCCCCCNS(=O)(=O)c1ccc(O)c(C(=O)O)c1)Nc1cc(C(=O)O)c(O)c(S(=O)(=O)O)c1` [Molecule 3, 5-[(11-{[(3-carboxy-4hydroxyphenyl)sulfonyl]amino}undecanoyl)amino]-2-hydroxy-3-sulfobenzoic acid]: the “tighter interaction than Molecule 1 in the CCR1 binding assay” value on CCR1 amounted to 3 fold. Moreover, at CCR1 (Homo sapiens), the IC50 was 2500 nM. In addition, in assay [1], the “cell recruitment to the peritoneum” value is “enhancement of cell recruitment; also recorded: no inhibition of recruitment, rather an enhancement at the highest dose”.

Consider persulfated MHx [MHxS], for which the “Anticoagulant activity (heparin-equivalent)” value in assay [2] (calibrated against heparin standard curve, samples at 1 mg/ml (MHxS 0.1 mg/ml)) came out at 11.87 ± 3.07 IU/mg. The “anticoagulant potency reduced compared to heparin” value in assay [2] (relative to heparin) is listed as 12 fold. In addition, in assay [3], the “mononuclear cell recruitment into the knee cavity” value is on record as “statistically significant reduction” and the “neutrophil recruitment into the knee cavity” value is given as “statistically significant reduction”. For the same compound, on CCL5 binding to heparin, the IC50 came out at 1270 ± 670 nM. For the same compound, in assay [4] (10 mg/kg s.c. at −30 min and +8 h), the “reduction of paw thickness compared with dexamethasone” value is given as “comparable effect”. In assay [4] (0.1, 1 and 10 mg/kg at −30 min and +8 h post-challenge, data not shown), the “inhibition of paw thickness, dose-response” value is listed as “statistically significant inhibitions were shown only for the highest dose”. In addition, the “inhibition of paw swelling” value in assay [4] (oligosaccharides 10 mg/kg s.c. at −30 min and +8 h, dexamethasone by oral gavage 30 min before challenge, paw thickness at 21 h) is given as 39%. In assay [5], the “cell recruitment to the peritoneal cavity” value is “enhanced recruitment, albeit moderately”.
